Measurements from ChEMBL document CHEMBL5370623, “Discovery of Quinazoline-2,4(1H,3H)-dione Derivatives Containing a Piperizinone Moiety as Potent PARP-1/2 Inhibitors─Design, Synthesis, In Vivo Antitumor Activity, and X-ray Crystal Structure Analysis” (J Med Chem, 2023).

Assays:
[1] = target: T1, Poly [ADP-ribose] polymerase 2 (Homo sapiens, UniProt Q9UGN5); assay: Inhibition of PARP2 (unknown origin)
[2] = AUC (0 to t) in BALB/c mouse at 2.5 mg/kg, iv measured upto 24 hrs by LC-MS/MS analysis; assay type: ADME, organism-based; design: time < 24 hrs, dose 2.5 mg/kg, route iv; details: in vivo
[3] = target: Protein mono-ADP-ribosyltransferase TIPARP (Homo sapiens, UniProt Q7Z3E1); assay: Inhibition of human recombinant N-terminal FLAG-tagged PARP7 (400 to 657(end) residues) expressed in Sf9 cells
[4] = Binding affinity to cat PARP1 assessed as dissociation constant by SPR assay; design: species or system Felis catus
[5] = target: T2, Poly [ADP-ribose] polymerase 1 (Homo sapiens, UniProt P09874); assay: Inhibition of human recombinant PARP1 expressed in Escherichia coli BL21(DE3) incubated for 1 hr by ELISA assay
DU-145 [6] = assay: Antitumor activity against PTEN-deficient human DU-145 cells xenografted in Balb/c athymic nude mouse assessed as tumor growth inhibition at 5 mg/kg, po qd measured after 14 days; assay type: functional; details: DU-145, 336 h, time 14 day, read-out: TGI
[7] = Toxicity in Balb/c athymic nude mouse xenografted with PTEN-deficient human DU145 cells assessed as change in body weight at 5 to 20 mg/kg, po qd measured after 14 days; assay type: organism-based, DU-145; details: in vivo, 336 h, dose 5-20 mg/kg, time 14 day
[8] = target: Protein mono-ADP-ribosyltransferase PARP6 (Homo sapiens, UniProt Q2NL67); assay: Inhibition of human recombinant N-terminal GST-tagged PARP6 (1 to 630(end) residues) expressed in Sf9 cells
MDA-MB-436 [9] = assay: Antitumor activity against BRCAl-deficient human MDA-MB-436 cells xenografted in Balb/c athymic nude mouse assessed as tumor growth inhibition at 10 mg/kg, po qd measured after 23 days; assay type: functional; details: MDA-MB-436, 552 h, time 23 day, read-out: TGI
[10] = target: Protein mono-ADP-ribosyltransferase PARP8 (Homo sapiens, UniProt Q8N3A8); assay: Inhibition of PARP8 (unknown origin)
[11] = Half life in BALB/c mouse at 25 mg/kg, po measured upto 24 hrs by LC-MS/MS analysis; assay type: ADME, organism-based; details: in vivo
[12] = Oral bioavailability in BALB/c mouse at 25 mg/kg measured upto 24 hrs by LC-MS/MS analysis; assay type: ADME, organism-based; details: in vivo
DU-145 [13] = assay: Antitumor activity against PTEN-deficient human DU-145 cells xenografted in Balb/c athymic nude mouse assessed as tumor growth inhibition at 10 mg/kg, po qd measured after 14 days; assay type: functional; details: DU-145, 336 h, time 14 day, read-out: TGI
[14] = target: T1, Poly [ADP-ribose] polymerase 2; assay: Inhibition of human recombinant PARP2 expressed in Escherichia coli BL21(DE3) incubated for 1 hr by ELISA assay
[15] = Tmax in BALB/c mouse at 2.5 mg/kg, iv measured upto 24 hrs by LC-MS/MS analysis; assay type: ADME, organism-based; details: in vivo
[16] = MRT (0 to t) in BALB/c mouse at 25 mg/kg, po measured upto 24 hrs by LC-MS/MS analysis; assay type: ADME, organism-based; details: in vivo
[17] = AUC (0 to t) in BALB/c mouse at 25 mg/kg, po measured upto 24 hrs by LC-MS/MS analysis; assay type: ADME, organism-based; design: time < 24 hrs, dose 25 mg/kg, route po; details: in vivo
MC-38 = assay: Antitumor activity against mouse MC38 cells implanted in C57BL/6 mouse assessed as tumor growth inhibition at 10 mg/kg, po qd measured after 17 days; assay type: functional; details: MC-38, 408 h, time 17 day, read-out: TGI
[18] = Tmax in BALB/c mouse at 25 mg/kg, po measured upto 24 hrs by LC-MS/MS analysis; assay type: ADME, organism-based; details: in vivo
[19] = Toxicity in Balb/c athymic nude mouse xenografted with BRCAl-deficient human MDA-MB-436 cells assessed as change in body weight at 1.1 to 10 mg/kg, po qd measured after 23 days; assay type: organism-based; details: in vivo, 552 h, dose 1.1-10 mg/kg, time 23 day
[20] = MRT (0 to infinity) in BALB/c mouse at 2.5 mg/kg, iv measured upto 24 hrs by LC-MS/MS analysis; assay type: ADME, organism-based; details: in vivo
[21] = target: T2, Poly [ADP-ribose] polymerase 1; assay: Inhibition of human recombinant N-terminal GST-tagged PARP1 (2 to 1014(end) residues) expressed in Sf9 cells
[22] = target: T1, Poly [ADP-ribose] polymerase 2
Description: Inhibition of human recombinant N-terminal GST-tagged PARP2 (2 to 583(end) residues) expressed in Sf9 cells

[23] = Aqueous solubility of the compound; assay type: physicochemical
[24] = Toxicity in C57BL/6 mouse implanted with mouse MC38 cells assessed as change in body weight at 10 mg/kg, po qd measured after 17 days; assay type: organism-based, MC-38; details: in vivo, 408 h, time 17 day
MDA-MB-436 [25] = assay: Antitumor activity against BRCAl-deficient human MDA-MB-436 cells xenografted in Balb/c athymic nude mouse assessed as tumor growth inhibition at 1.1 mg/kg, po qd measured after 23 days; assay type: functional; details: MDA-MB-436, 552 h, time 23 day, read-out: TGI
DU-145 [26] = assay: Antitumor activity against PTEN-deficient human DU-145 cells xenografted in Balb/c athymic nude mouse assessed as tumor growth inhibition at 20 mg/kg, po qd measured after 14 days; assay type: functional; details: DU-145, 336 h, time 14 day, read-out: TGI
[27] = Cmax in BALB/c mouse at 25 mg/kg, po measured upto 24 hrs by LC-MS/MS analysis; assay type: ADME, organism-based; design: time < 24 hrs, dose 25 mg/kg, route po; details: in vivo
[28] = MRT (0 to t) in BALB/c mouse at 2.5 mg/kg, iv measured upto 24 hrs by LC-MS/MS analysis; assay type: ADME, organism-based; details: in vivo
[29] = Half life in BALB/c mouse at 2.5 mg/kg, iv measured upto 24 hrs by LC-MS/MS analysis; assay type: ADME, organism-based; details: in vivo
[30] = Cmax in BALB/c mouse at 2.5 mg/kg, iv measured upto 24 hrs by LC-MS/MS analysis; assay type: ADME, organism-based; design: time < 24 hrs, dose 2.5 mg/kg, route iv; details: in vivo
[31] = target: Protein mono-ADP-ribosyltransferase PARP3 (Homo sapiens, UniProt Q9Y6F1); assay: Inhibition of human recombinant N-terminal GST-tagged PARP3 (2 to 540(end) residues) expressed in Sf9 cells
[32] = AUC (0 to infinity) in BALB/c mouse at 25 mg/kg, po measured upto 24 hrs by LC-MS/MS analysis; assay type: ADME, organism-based; design: dose 25 mg/kg, time < 24 hrs, route po; details: in vivo
[33] = Binding affinity to cat PARP2 assessed as dissociation constant by SPR assay; design: species or system Felis catus
[34] = MRT (0 to infinity) in BALB/c mouse at 25 mg/kg, po measured upto 24 hrs by LC-MS/MS analysis; assay type: ADME, organism-based; details: in vivo
[35] = AUC (0 to infinity) in BALB/c mouse at 2.5 mg/kg, iv measured upto 24 hrs by LC-MS/MS analysis; assay type: ADME, organism-based; design: dose 2.5 mg/kg, time < 24 hrs, route iv; details: in vivo
MDA-MB-436 [36] = assay: Antitumor activity against BRCAl-deficient human MDA-MB-436 cells xenografted in Balb/c athymic nude mouse assessed as tumor growth inhibition at 3.3 mg/kg, po qd measured after 23 days; assay type: functional; details: MDA-MB-436, 552 h, time 23 day, read-out: TGI

T1 sequence (Q9UGN5 whole entry): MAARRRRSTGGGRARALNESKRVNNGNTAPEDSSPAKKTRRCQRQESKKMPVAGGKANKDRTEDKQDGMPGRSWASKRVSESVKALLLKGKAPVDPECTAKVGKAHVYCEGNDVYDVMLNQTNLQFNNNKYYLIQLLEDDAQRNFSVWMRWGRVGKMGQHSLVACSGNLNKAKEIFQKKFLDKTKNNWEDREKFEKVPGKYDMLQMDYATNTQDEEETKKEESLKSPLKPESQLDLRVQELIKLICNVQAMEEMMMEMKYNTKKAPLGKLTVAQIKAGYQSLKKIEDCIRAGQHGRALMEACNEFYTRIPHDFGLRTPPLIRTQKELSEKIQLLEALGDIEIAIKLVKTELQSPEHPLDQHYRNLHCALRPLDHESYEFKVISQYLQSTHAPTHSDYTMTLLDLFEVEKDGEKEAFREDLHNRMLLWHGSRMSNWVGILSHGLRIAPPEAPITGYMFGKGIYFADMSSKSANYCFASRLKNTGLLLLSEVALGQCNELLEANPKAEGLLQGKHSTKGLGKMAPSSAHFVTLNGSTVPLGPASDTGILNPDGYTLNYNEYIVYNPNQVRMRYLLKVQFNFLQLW
T2 sequence (P09874 whole entry): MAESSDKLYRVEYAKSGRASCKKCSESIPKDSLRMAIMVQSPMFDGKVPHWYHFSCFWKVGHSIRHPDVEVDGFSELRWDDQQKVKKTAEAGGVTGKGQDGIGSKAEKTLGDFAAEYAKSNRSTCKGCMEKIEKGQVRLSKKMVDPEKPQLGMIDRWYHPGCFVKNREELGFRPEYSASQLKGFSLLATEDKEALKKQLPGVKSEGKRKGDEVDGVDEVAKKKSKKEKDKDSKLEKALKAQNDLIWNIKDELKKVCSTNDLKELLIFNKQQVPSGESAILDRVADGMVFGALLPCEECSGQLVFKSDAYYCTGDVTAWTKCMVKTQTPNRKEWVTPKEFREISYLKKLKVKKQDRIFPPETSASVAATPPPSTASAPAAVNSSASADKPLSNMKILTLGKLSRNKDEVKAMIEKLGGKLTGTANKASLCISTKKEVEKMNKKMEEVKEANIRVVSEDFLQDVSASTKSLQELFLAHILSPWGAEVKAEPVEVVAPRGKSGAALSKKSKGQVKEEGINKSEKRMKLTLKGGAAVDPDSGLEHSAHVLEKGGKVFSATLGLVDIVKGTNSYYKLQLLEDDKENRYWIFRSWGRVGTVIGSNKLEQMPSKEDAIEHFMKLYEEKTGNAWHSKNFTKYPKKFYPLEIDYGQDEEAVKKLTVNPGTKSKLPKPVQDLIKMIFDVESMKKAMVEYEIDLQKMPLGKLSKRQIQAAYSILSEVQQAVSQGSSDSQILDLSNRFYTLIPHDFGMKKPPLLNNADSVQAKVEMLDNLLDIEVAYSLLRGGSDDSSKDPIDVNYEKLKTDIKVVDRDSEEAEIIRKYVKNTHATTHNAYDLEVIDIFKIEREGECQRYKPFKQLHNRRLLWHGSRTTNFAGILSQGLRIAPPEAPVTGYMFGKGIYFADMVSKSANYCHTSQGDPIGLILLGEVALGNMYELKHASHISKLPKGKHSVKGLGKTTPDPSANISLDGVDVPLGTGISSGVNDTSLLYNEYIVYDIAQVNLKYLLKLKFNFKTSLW
Protein mono-ADP-ribosyltransferase TIPARP, sequence (Q7Z3E1 whole entry): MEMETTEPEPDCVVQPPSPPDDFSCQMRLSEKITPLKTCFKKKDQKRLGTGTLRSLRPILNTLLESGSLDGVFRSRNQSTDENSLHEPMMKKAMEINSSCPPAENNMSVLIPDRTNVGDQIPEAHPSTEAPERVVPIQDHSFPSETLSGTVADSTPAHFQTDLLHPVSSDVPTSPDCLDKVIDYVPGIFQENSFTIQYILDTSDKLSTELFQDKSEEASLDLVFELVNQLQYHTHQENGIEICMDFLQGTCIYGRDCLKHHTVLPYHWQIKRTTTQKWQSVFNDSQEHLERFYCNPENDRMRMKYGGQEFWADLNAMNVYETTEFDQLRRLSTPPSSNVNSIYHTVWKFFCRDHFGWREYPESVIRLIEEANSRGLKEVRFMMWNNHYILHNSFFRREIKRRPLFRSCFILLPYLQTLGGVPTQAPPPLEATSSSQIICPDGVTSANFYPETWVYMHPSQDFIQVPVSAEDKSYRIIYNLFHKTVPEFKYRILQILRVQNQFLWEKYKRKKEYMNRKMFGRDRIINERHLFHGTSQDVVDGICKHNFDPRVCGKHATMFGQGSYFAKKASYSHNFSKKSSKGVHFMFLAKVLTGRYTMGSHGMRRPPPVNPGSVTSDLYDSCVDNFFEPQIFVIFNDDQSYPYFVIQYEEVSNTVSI
Protein mono-ADP-ribosyltransferase PARP8, sequence (Q8N3A8 whole entry): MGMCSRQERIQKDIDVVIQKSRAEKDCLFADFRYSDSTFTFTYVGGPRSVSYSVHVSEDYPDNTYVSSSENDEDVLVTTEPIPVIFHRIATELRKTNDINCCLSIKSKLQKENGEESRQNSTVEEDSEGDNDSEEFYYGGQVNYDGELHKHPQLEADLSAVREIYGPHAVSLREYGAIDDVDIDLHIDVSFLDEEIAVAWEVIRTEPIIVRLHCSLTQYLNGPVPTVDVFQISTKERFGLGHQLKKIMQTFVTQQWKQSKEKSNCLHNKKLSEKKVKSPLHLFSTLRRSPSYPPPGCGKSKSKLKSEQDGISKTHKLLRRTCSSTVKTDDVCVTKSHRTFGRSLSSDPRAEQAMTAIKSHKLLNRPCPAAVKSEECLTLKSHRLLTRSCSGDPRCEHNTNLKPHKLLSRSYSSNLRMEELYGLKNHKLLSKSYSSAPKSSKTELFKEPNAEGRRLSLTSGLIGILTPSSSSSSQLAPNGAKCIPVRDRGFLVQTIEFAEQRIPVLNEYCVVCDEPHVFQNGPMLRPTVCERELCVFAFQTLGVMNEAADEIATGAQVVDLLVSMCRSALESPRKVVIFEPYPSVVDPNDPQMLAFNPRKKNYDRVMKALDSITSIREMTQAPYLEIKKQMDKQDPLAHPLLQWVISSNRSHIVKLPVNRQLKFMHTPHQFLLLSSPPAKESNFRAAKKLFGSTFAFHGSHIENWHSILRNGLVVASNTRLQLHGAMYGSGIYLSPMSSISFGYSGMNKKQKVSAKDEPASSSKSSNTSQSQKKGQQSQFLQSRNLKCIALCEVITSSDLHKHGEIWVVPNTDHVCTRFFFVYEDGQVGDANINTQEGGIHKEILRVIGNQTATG
Protein mono-ADP-ribosyltransferase PARP6, sequence (Q2NL67 whole entry): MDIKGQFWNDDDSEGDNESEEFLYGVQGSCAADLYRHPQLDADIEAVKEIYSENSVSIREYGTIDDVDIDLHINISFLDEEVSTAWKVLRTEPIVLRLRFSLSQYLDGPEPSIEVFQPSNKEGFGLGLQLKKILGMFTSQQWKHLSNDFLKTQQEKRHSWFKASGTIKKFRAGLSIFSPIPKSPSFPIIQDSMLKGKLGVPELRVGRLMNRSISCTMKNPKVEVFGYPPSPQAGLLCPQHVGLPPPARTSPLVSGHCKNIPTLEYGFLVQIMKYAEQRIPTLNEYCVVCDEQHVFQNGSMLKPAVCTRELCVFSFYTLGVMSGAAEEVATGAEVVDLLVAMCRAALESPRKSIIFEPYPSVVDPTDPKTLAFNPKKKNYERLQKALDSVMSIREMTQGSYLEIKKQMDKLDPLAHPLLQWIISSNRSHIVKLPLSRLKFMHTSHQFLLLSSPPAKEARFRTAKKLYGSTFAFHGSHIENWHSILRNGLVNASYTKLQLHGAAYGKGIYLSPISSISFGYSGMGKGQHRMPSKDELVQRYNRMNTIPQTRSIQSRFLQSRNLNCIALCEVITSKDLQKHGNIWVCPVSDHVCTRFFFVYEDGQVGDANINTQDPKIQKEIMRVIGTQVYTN
Protein mono-ADP-ribosyltransferase PARP3, sequence (Q9Y6F1 whole entry): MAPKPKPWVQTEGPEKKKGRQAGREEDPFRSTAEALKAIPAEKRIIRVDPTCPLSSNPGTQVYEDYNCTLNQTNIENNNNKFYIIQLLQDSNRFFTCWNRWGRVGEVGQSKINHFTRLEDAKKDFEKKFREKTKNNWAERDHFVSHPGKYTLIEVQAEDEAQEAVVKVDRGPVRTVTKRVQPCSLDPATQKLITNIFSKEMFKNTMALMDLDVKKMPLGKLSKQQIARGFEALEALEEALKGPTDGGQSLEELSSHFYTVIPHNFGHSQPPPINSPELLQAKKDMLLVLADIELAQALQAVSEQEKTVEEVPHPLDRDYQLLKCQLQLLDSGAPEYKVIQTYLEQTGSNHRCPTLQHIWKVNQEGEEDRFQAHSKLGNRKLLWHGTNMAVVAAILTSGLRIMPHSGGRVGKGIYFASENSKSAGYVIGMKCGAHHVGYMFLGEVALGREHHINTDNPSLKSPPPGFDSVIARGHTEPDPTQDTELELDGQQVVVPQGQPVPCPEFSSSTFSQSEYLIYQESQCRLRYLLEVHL

For `C[C@]12CCCN1CC1=NNC(=O)c3cc(F)cc4[nH]c2c1c34` [PAMIPARIB], the IC50 [1] was 0.3 nM.
In the case of `CCC(CC)N1CCN(C(=O)c2cc(Cn3c(=O)[n-]c(=O)c4ccccc43)ccc2F)CC1=O.[Na+]`, the AUC(0-t) at 24 h [2] is reported as 417 ng·h/mL, the IC50 [3] is reported as 0.21 nM and the Kd [4] is reported as 0.83 nM. The IC50 [5] was 0.94 nM, the inhibition in vivo at 5 mg/kg (DU-145 [6]) was 69.2% and the Activity [7] was “Non-Toxic”. It also gave an IC50 [8] of about 280 nM, an inhibition in vivo at 10 mg/kg (MDA-MB-436 [9]) of 94.3% and an IC50 [10] of 13 nM. For the same molecule, the half-life [11] was 16.2 min, the bioavailability [12] was 14.7% and the inhibition in vivo at 10 mg/kg (DU-145 [13]) was 87%. For the same molecule, the IC50 [14] was 0.87 nM, the Tmax [15] was 1.8 min and the MRT last at 24 h [16] was 18.6 min. The AUC(0-t) at 24 h [17] was 612 ng·h/mL, the inhibition in vivo at 10 mg/kg (MC-38) was 57.3% and the Tmax [18] was 4.8 min. For the same molecule, the Activity [19] was “Non-Toxic”, the MRT inf [20] was 7.8 min and the IC50 [21] was 0.94 nM. The IC50 [22] was 0.87 nM, the solubility [23] was 223 µg/mL and the Activity [24] was “Non-Toxic”. For the same molecule, the inhibition in vivo at 1.1 mg/kg (MDA-MB-436 [25]) was 54.6%, the inhibition in vivo at 20 mg/kg (DU-145 [26]) was 91.2% and the Cmax [27] was 1540 ng/mL. For the same molecule, the MRT last at 24 h [28] was 7.8 min, the half-life [29] was 7.8 min and the Cmax [30] was 2430 ng/mL. For the same molecule, the IC50 [31] was 51 nM, the AUC(0-inf) [32] was 617 ng·h/mL and the Kd [33] was 0.75 nM. For the same molecule, the MRT inf [34] was 19.2 min, the AUC(0-inf) [35] was 419 ng·h/mL and the inhibition in vivo at 3.3 mg/kg (MDA-MB-436 [36]) was 84.9%.
